pIC50: −log10 of the molar value.
What was measured:
[1] = system: rat peritoneal macrophages (^14 C-arachidonic acid release); assay: Rat peritoneal macrophage assay, in vitro: ^14 C release from arachidonic acid metabolism; assay type: cell-based; conditions: stimulated with calcium ionophore A 23187 (5×10^-7 M), ^14 C released
Excerpt: (§1) RAT PERITONEAL MACROPHAGE ASSAY, IN VITRO
(§2) The rat peritoneal macrophage assay measures the ability of a test compound to influence the release of arachidonic acid (AA) from phospholipid stores in the plasma membrane and the subsequent metabolism of AA by the Δ^5 -lipoxygenase (5-LO) and cyclooxygenase (CO) pathways to the final products excreted by the cells: leukotriene B4 (LTB4, from the 5-LO pathway) and prostaglandin E2 (PGE2, from the CO pathway).
(§3) Macrophages were obtained form rats by peritoneal lavaqe with phosphate buffered saline minus Ca^+2 and Mg^+2 (PBS). Cells were washed 3 times with PBS and resuspended in Delbecco's Modified Eagle medium (Gibco Laboratories) containing L-glutamine and D-glucose and supplemented with 10% fetal calf serum. Cells were counted on a Coulter ZBA cell counter and then resuspended to a concentration of 4×10^6 cells/mL. Three mL of the cell suspension were added to plastic culture dishes (3 cm), and then the cells were allowed to adhere for 90 minutes at 37° C. Dishes were washed 3 times with PBS to remove nonadherent cells. ^14 C-AA (ca. […]) were added to the cells (1 μCi/dish) and allowed to incorporate for 90 minutes. Unincorporated ^14 C-AA was removed and the cell layer was again washed 3 times with PBS. Test compounds were dissolved in DMSO and diluted in phosphate-buffered Hank's balanced salt solution to appropriate concentrations. Cells were incubated with test compounds or the solution used to dissolve the test compounds (control) for 30 minutes at 37° C. and were then stimulated with calcium ionophore A 23187 (5×10^-7 M) for 20 minutes. The extracellular fluid was removed and ^14 C radioactivity released into this fluid from AA metabolism was measured by liquid scintillation spectroscopy. The amounts of LTB4 and PGE2, were measured in the extracellular fluid by radioimmunoassay with specific antisera. The effect of a test compound or standard was calculated as a percent inhibition of the maximum effect produced in the presence of A 23187 and expressed as an inhibitory concentration 50% IC50).
(§4) This assay measures inhibition by the test compounds of the 5-LO and the CO pathways of AA metabolism and this inhibition is expressed as an IC50 for LTB4 and PGE2 formation respectively.

[2] = system: Δ^5 -lipoxygenase (5-LO) pathway, LTB4 formation in rat peritoneal macrophages; assay: Rat peritoneal macrophage assay, in vitro: LTB4 formation (5-LO pathway); assay type: cell-based; conditions: stimulated with calcium ionophore A 23187 (5×10^-7 M), LTB4 by radioimmunoassay
Excerpt: as §1, §2, §3, §4

[3] = system: cyclooxygenase (CO) pathway, PGE2 formation in rat peritoneal macrophages; assay: Rat peritoneal macrophage assay, in vitro: PGE2 formation (CO pathway); assay type: cell-based; conditions: stimulated with calcium ionophore A 23187 (5×10^-7 M), PGE2 by radioimmunoassay
Excerpt: as §1, §2, §3, §4

[4] = system: Rat Acetic Acid Colitis Model; assay: Acetic acid-induced colitis in rats, in vivo (myeloperoxidase accumulation); parameters: species or system rat (Sprague-Dawley)
Excerpt: ACETIC ACID-INDUCED COLITIS IN RATS, IN VIVO
The rat acetic acid induced colitis bioassay has been described by J. E. Krawisz, et al. in Amer. J. Proc. Gastro. Col. Rec. Surg. 31: 11-18 (1980), and by P. Sharon and W. F. Stenson in Gastroenterology 88: 55-63 (1985) and 86: 453-460 (1984). Acetic acid-induced colitis is characterized by the movement of inflammatory cells into the colon, with the number of such cells in the mucosa being measured by the activity of myeloperoxidase, a marker enzyme for these cells. Positive desirable activity is indicated by a reduction in the high levels of myeloperoxidase caused by acetic acid. Male rats (Sprague-Dawley), weighing 150 to 300g, were pretreated twice daily for two days with either the vehicle (water, or dimethylsulfoxide) or the test inhibitor compound suspended in water or dissolved in dimethylsulfoxide and orally administered. On the third day, the animals were dosed the same as on the previous two days, anesthetized with metofane, and 2 ml of 2.5% acetic acid was injected by syringe into the colonic lumen, followed immediately by 3 ml of air and a rinse consisting of 3 ml of phosphate-buffered saline (the acetic acid is present in the lumen for a sufficient period to cause inflammation without producing severe necrosis or irreversible damage). The animals were administered a second dose of the test compound in the same amount about 16 hours later. 24 hours after the acetic acid treatment, the animals were sacrificed, the colonic mucosa was surgically removed and homogenized in an aqueous buffer at pH 6 with a Tissumizer or similar device and myeloperoxidase was measured in the homogenate using o-phenylenediamine as a chromagen, as described by A. Voller, D. E. Bidwell and A. Bartlett in The Enzyme Linked Immunosorbent Assay (ELISA), Zoological Soc., London 1979, pages 29-30. Control animals were pretreated with the vehicle and saline in place of acetic acid.

[5] = molecular target: T1, Δ^5 lipoxygenase from rat basophilic leukemia (RBL-1 cells) (Rattus norvegicus, UniProt P12527); assay: In vitro test for Δ^5-lipoxygenase inhibitors; assay type: biochemical; conditions: RBL-1 supernatant enzyme, 6.7 μM [1-^14 C]arachidonic acid, 10 min preincubation; read-out: IC50 value, Δ^5-lipoxygenase inhibition
T1 construct: the resulting supernatant fraction was used as the source of Δ^5 -lipoxygenase; endogenous in cells; host or cells: RBL-1 rat basophilic leukemia cells (supernatant of the homogenate after 49,000 g)
T1 sequence (P12527 1-673): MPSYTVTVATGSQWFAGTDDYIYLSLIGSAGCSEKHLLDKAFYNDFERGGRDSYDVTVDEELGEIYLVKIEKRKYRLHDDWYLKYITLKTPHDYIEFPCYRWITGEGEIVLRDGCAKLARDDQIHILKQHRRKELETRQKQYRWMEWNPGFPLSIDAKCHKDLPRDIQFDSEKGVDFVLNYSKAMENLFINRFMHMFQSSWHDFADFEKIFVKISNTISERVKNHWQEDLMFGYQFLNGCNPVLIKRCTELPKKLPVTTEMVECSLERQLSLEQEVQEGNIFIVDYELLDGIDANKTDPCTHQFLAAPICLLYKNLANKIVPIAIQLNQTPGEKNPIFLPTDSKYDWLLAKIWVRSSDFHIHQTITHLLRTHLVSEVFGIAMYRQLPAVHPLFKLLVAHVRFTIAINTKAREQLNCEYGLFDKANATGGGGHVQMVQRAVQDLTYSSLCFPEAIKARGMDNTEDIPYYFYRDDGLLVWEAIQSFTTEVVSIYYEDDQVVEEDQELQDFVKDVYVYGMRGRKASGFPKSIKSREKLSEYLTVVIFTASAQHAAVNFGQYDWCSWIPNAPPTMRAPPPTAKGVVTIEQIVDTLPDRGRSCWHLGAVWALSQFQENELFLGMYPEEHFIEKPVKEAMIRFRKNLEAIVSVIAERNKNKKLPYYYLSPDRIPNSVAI
Protocol: IN VITRO TEST FOR Δ^5 -LIPOXYGENASE INHIBITORS
In this procedure a compound is tested for its effect on Δ^5 lipoxygenase from rat basophilic leukemia (RBL-1 cells). The activity of this enzyme was determined by measuring the catalytic conversion of [1-^14 C]arachidonic acid to [1-^14 C-5-hydroperoxy- 6,8,11,14-eicosatetraenoic acid ([1-^14 C]-5-HPETE) which leads to the formation of the 5-hydroxy derivative ([1-^14 C]-5-HETE). The Δ^5 -lipoxygenase was derived from the supernatant fraction of lysed RBL-1 cells using a modification of the method previously described by Jakschik and Lee [Nature 287,51 (1980)]. Briefly, RBL-1 cells were lysed by homogenization in ice-cold buffer (50 mM Tris-HCl buffer. PH 7.2, containing 1 mM EDTA and 14 μM indomethacin). The homogenate was centrifuged at 4° at 49,000 g for 20 minutes and the resulting supernatant fraction was used as the source of Δ^5 -lipoxygenase. […] The ethereal extract containing [1-^14 C]-5-HETE and unreacted substrate was analyzed by silica gel TLC using isooctanemethylethyl ketone-acetic acid (100:9:1) as the developing solvent. […] The effect of an inhibitor on Δ^5 -lipoxygenase activity is determined by preincubating the enzyme for 10 minutes at 30° in the presence or absence of various concentrations of the drug prior to addition of substrate. […]

| pIC50 [1] | pIC50 [2] | pIC50 [3] | pIC50 [5] | SMILES | % Inhibition of Myeloperoxidase Accumulation ([4]; 10 mg/kg po) [%] | % Inhibition of Myeloperoxidase Accumulation ([4]; 1 mg/kg po) [%] |
| --- | --- | --- | --- | --- | --- | --- |
| 6.00 | 6.22 | 5.52 | – | CC(C(=O)O)c1ccc2cc(OCCCCCCc3cccc(O)c3O)ccc2c1 (racemic) [(rac)-6-[6-(2,3-Dihydroxyphenyl)hexyloxy]-alpha-methyl-2-naphthalene-aceticacid] | 88 ± 17 | – |
| 6.05 | 6.70 | 6.00 | 7.92 | C[C@H](C(=O)O)c1ccc2cc(OCCCCCCc3cccc(O)c3O)ccc2c1 [(S)-6-[6-(2,3-dihydroxyphenyl)hexyloxy]-alpha-methyl-2-naphthaleneacetic acid] | – | 90 ± 11 |

Second part, the compound before the results:

| SMILES | pIC50 [1] | pIC50 [2] | pIC50 [3] | pIC50 [5] | % Inhibition of Myeloperoxidase Accumulation ([4]; 10 mg/kg po) [%] | % Inhibition of Myeloperoxidase Accumulation ([4]; 1 mg/kg po) [%] |
| --- | --- | --- | --- | --- | --- | --- |
| O=C(O)c1ccc2cc(OCCCCCCc3cccc(O)c3O)ccc2c1 [6-[6-(2,3-Dihydroxyphenyl)hexyloxy]-2-naphthalenecarboxylic acid] | 5.52 | 5.52 | 5.05 | – | – | 72 ± 8 |
| O=C(O)Cc1ccc2cc(OCCCCCCc3cccc(O)c3O)ccc2c1 [6-[6-(2,3-dihydroxyphenyl)hexyloxy]-2-naphthalene acetic acid] | 5.52 | 6.05 | 5.30 | – | – | 72 ± 8 |
| CCOC(=O)[C@@H](C)c1ccc2cc(OCCCCCCc3cccc(O)c3O)ccc2c1 [(S)-6-[6-(2,3-Dihydroxyphenyl)hexyloxy]-alpha-methyl-2-naphthaleneacetic acid ethyl ester] | 5.52 | 6.22 | 5.40 | – | 23 ± 5 | – |
| C[C@H](C(=O)O)c1ccc2cc(OCCCCCCc3ccc(O)c(O)c3)ccc2c1 [(S)-6-[6-(3,4-dihydroxyphenyl)hexyloxy]-alpha-methyl-2-naphthaleneacetic acid] | 6.00 | 6.22 | 5.52 | – | 13 ± 2 | – |
